One may read the solubility as the concentration that dissolves in the medium under given conditions. For orientation: Papp A→B means the apparent permeability from the apical to the basolateral side of a cell layer. A higher Papp A→B goes with ready permeation. The Papp B→A is how fast a substance crosses the layer from the basolateral side.

Consider 2 molecules from patent US10981911B2, “Imidazopyrrolopyridine as inhibitors of the JAK family of kinases” (Janssen Pharmaceutica NV, priority 2016, dated 2021).

Where two headings read alike, the source gives them in different places.

The nature of data set [1]: In vivo p.o. dosing: plasma and colon tissue concentrations (Protocols 1 and 2). As to conditions: female, C57BL/6, mouse, po, mice, 25 mg/kg p.o. On the set-up: species or system female C57BL/6 mice. As for the experimental part:
These protocols are described below under the heading In vivo Studies. Three non-fasted female C57BL/6 mice were orally administered test compound at a dose of 25 mg/kg p.o. as a solution in 20% hydroxypropyl-beta-cyclodextrin (HPβCD) at a dose volume of 5 mL/kg. Blood samples were collected at 0.5, 2, and 4 h post dose via retro-orbital bleed or venipuncture of the dorsal metatarsal vein. Blood samples were collected into tubes containing anticoagulant (Heparin-Na) and placed on wet ice. The plasma fraction was separated by centrifugation and frozen at −20° C. for up to 4 h and −80° C. after 4 h unless analyzed shortly after sample collection. Colon samples were collected at 4 h post dose. […] The colon was further washed by putting it in 5 mL of saline and shaken for 5 seconds. The colon sample was then patted dry, weighed, and homogenized as 1 part tissue (g) to 4 parts HPLC grade water (mL). Concentrations of the compound in plasma and colon homogenate were determined using a qualified liquid chromatography-triple quadrupole mass spectrometry (LC-MS/MS) method. […] Three non-fasted female C57BL/6 mice were orally administered test compound at a dose of 25 mg/kg p.o. as a solution in 20% HPβCD at a dose volume of 5 mL/kg. Blood samples were collected at 0.5, 2, and 4 h post dose via retro-orbital bleed or dorsal metatarsal vein. Blood samples were collected into tubes containing anticoagulant (Heparin-Na) and placed on wet ice. The plasma fraction was separated by centrifugation and frozen at −20° C. for up to 4 h and −80° C. after 4 h unless analyzed shortly after sample collection. Colon samples were collected at 4 h post dose. From 2 cm below the cecum, a 4 cm sample of the colon was dissected, cut open on the longitudinal axis, and the solid contents removed by flushing with 2 mL of saline. The colon was further washed by putting it in 5 mL of saline and shaken for 5 seconds. The colon sample was then patted dry, weighed, and homogenized as 1 part tissue (g) to 4 parts HPLC grade water (mL). Concentrations of the compound in plasma and colon homogenate were determined using a qualified liquid chromatography-triple quadrupole mass spectrometry (LC-MS/MS) method.

Data set [2] can be described thus: Solubility assays in simulated gastric and simulated intestinal fluids. The following applies: thermodynamic from solid, 2-5 days. The format is physicochemical. Here is the method: Test compounds were dissolved in DMSO at a concentration of 10 mM. The test compounds were dispensed (20 μL) into Nunc 1-mL-96-Deep-Well-PP plates, and the DMSO was evaporated via nitrogen blow down from a TurboVap 96 for 6 hours or until a dry residue was produced. Then, 400 μL of solubility media was added to the well containing the dry solid. […] After the incubation period, the samples were filtered through an AcroPrep 1-mL-96-Filter plate into a new 2-mL-96-Deep-Well-PP plate, and the supernatants were quantified by UV-HPLC using a 3-point calibration ranging from 0.004-0.55 mM. The solubility for each compound was calculated from the following equation: […] Solubilities are reported as long as the compound under study was sufficiently stable to complete the corresponding solubility determination.

A further data set has as its system P-gp (MDR1). Description: MDCK-MDR1 permeability assay. It counts as in vitro ADME. As to conditions: dog, MDCK-MDR1, pH 7.4, @ 5 μM; for Papp A→B at 60 min, 5 μM: apical to basolateral, without P-gp inhibitor; for Papp B→A at 60 min, 5 μM: basolateral to apical. Here is the method:
Permeability measurements were conducted according to the Cyprotex protocol using the MDCK-MDR1 cell line obtained from the NIH (Rockville, Md., USA). Cells between passage numbers 6-30 were seeded onto a Multiscreen Plate™ (Millipore) at a cell density of 3.4×10^5 cells/cm^2 and cultured for three days before permeability studies were conducted. The cells in this assay form a cohesive sheet of a single cell layer filing the surface area of the culture dish, also known as a confluent monolayer, and on day four the test compound was added to the apical side of the membrane and the transport of the compound across the monolayer was monitored over a time period of 60 min.
Test compounds were dissolved in DMSO at a concentration of 10 mM. The dosing solutions were prepared by diluting test compound with assay buffer (Hanks Balanced Salt Solution), pH 7.4, at a final concentration of 5 μM. For assessment of apical to basolateral (“A-B”) permeability, buffer was removed from the apical compartment and replaced with test compound dosing solution with or without the permeability glycoprotein (“PgP”, “P-gP”, “Pgp” or “P-gp”) inhibitor elacridar (2 μM). For assessment of basolateral to apical (“B-A”) permeability, buffer was removed from the companion plate and replaced with test compound dosing solution. Incubations were carried out in duplicate at 37° C. in an atmosphere of 5% CO2 with a relative humidity of 95%. Each assay included the reference markers propranolol (high permeability) and prazosin (PgP substrate). After incubation for 60 minutes, apical and basolateral samples were diluted and test compounds quantified by LC/MS/MS using an 8-point calibration in the range 0.0039 to 3 μM with appropriate dilution of the samples (receiver dilution factor=1; donor and C0 dilution factor=10). The permeability coefficient (Papp) for each compound was calculated from the following equation: Papp=(dQ/dt)/(C0×S), where dQ/dt is the rate of permeation of the drug across the cells, C0 is the donor compartment concentration at time zero, and S is the area of the cell monolayer.
The second and third columns in Table 7 show the values of Papp(A-B) for the apical-to-basolateral compound transport without (second column) and with a P-gp inhibitor (third column, noted as P^eapp(A-B)) that was elacridar. Papp(A-B) gives an indication of permeation extent across the cells in this assay, which is envisaged to model the transcellular transport across Pgp-expressing cells, such as Pgp-expressing gastrointestinal tract cells. P^eapp(A-B) values (Papp(A-B) in the presence of the P-gp inhibitor) given in column 3 are determined to confirm the role of P-gp in the compound efflux. […] Test compound efflux ratios are given in the fifth column of Table 7 as Papp(B-A)/Papp(A-B) by using the corresponding permeability coefficient values from the fourth and second columns in the same table.

[3] abbreviates: colon, read-out: Colon Concentration After p.o. Dosing, Mean.
[4] abbreviates: fassif, simulated intestinal fluid, fasted state pH 6.5, ambient temperature, read-out: SIF solubility.
The mark [5] stands for this setting: simulated gastric fluid, ambient temperature, read-out: SGF solubility.

Regarding `Cn1cc(NC(=O)Cc2nc3cnc4[nH]ccc4c3n2[C@H]2CC[C@H](CC#N)CC2)cn1` [Ex. 38, 2-(1-((1r,4r)-4-(Cyanomethyl)cyclohexyl)-1,6-dihydroimidazo[4,5-d]pyrrolo[2,3-b]pyridin-2-yl)-N-(1-methyl-1H-pyrazol-4-yl)acetamide], the concentration at 4 h in data set [1] (setting [3]) amounted to 7680 ng/g; in data set [1] (plasma, read-out: Plasma Concentration After p.o. Dosing, Mean), 3.9 ng/mL. Moreover, the concentration at 0.5 h in data set [1] (plasma, Time = 0.5 h, read-out: Plasma Concentration After p.o. Dosing, Mean) worked out at 15.1 ng/mL. For the same molecule, the concentration at 2 h in data set [1] (plasma, Time = 2 h, read-out: Plasma Concentration After p.o. Dosing, Mean) is 6.2 ng/mL. Besides, the solubility in data set [2] (setting [4]) and in data set [2] (setting [5]) was greater than 400 µM each time. This molecule displayed a Papp A→B at 60 min, 5 μM with P-gp (MDR1) of less than 0.4 ×10⁻⁶ cm/s. In the data set on P-gp (MDR1), this molecule returned a Papp B→A at 60 min, 5 μM of 1.8 ×10⁻⁶ cm/s.
Regarding `N#CC[C@H]1CC[C@H](n2c(CC(=O)Nc3cc[nH]n3)nc3cnc4[nH]ccc4c32)CC1` [Ex. 74, 2-(1-((1r,4r)-4-(Cyanomethyl)cyclohexyl)-1,6-dihydroimidazo[4,5-d]pyrrolo[2,3-b]pyridin-2-yl)-N-(1H-pyrazol-3-yl)acetamide], the concentration at 4 h in data set [1] (setting [3]) is 4780 ng/g. The solubility in data set [2] (setting [4]) and in data set [2] (setting [5]) was greater than 400 µM each time. Further, the Papp A→B at 60 min, 5 μM in the data set with P-gp (MDR1) is less than 0.4 ×10⁻⁶ cm/s. In the data set on P-gp (MDR1), the Papp B→A at 60 min, 5 μM came to 1.1 ×10⁻⁶ cm/s.
